Assay results published in article PMC12491715 (Acta Pharmaceutica Sinica. B, 2025).
“And” between values parts separate entries of the source, which are not always exact repeats. Equal values may be shown once. Read-outs that look alike come from different tables or passages of the source.

Legend:
AChE = target: T1, AChE (Mus musculus, UniProt P21836); assay: Cholinesterase inhibition upon repeated dosing, serum AChE; type: in vivo, C57BL/6JRccHsd mice
T1 construct: from tissue; host or cells: mouse serum (C57BL/6JRccHsd)
T1 sequence (P21836 32-614): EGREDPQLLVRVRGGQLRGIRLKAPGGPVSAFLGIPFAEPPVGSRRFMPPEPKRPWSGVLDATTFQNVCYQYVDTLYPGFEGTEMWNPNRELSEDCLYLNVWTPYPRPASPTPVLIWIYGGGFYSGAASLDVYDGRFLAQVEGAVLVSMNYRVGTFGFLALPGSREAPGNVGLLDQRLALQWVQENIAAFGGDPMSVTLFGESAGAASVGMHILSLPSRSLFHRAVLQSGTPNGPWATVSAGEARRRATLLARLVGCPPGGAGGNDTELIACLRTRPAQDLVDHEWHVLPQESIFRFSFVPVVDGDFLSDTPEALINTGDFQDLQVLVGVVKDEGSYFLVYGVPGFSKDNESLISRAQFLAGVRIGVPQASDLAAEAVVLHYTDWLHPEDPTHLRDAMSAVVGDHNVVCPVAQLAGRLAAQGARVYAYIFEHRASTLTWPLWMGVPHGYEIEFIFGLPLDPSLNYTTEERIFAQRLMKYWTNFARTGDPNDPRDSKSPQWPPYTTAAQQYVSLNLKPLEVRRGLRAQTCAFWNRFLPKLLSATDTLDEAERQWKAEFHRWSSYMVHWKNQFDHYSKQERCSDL
Source text: (§1) The 12 mice used in this pilot study were 9–14 months old male wild-type C57BL/6JRccHsd mice bred in the Laboratory of Animal Genomics at the Faculty of Veterinary Medicine, University of Ljubljana, or purchased from Envigo RMS Holding Corp. Mice were conventionally bred in open polycarbonate cages (Tecniplast, Buguggiate, Italy) and provided with wood chip bedding (Lignocel®, Rettenmaier and Sons, Germany). Mice were kept under standard conditions, including a 12:12 dark–light cycle (LED, CCT 3000 k, with no more than 25 lux above the cage), a temperature range of 21–24 °C, and humidity between 50%–60%. They were fed irradiated rodent diet (Teklad global 16% protein rodent diet®, BN 2916, Envigo, Udine, Italy) and had access to drinkable tap water ad libitum. Due to the nature of this pilot study, the mice were housed individually. The experimental design was evaluated by the National Ethics Committee for Animal Experiments and approved by the Veterinary Administration of the Republic of Slovenia (document no. U34401-10/2021/8, with amendments U34401-10/2021/13 and U34401-10/2021/1).
(§2) Before the start of study, blood was drawn from the submandibular vein (facial vein) of the animals under isoflurane inhalation anesthesia (Isoflurin®, VetPharma, Spain) using a 5 mm lancet (Goldenrod Animal Sterile, MEDIpoint, Inc., NY, USA), collected in a microtube (Eppendorf, Safe-Lock tube, 0.5 mL, Eppendorf AG, Germany) and allowed to clot. After approximately 1 h, the blood was centrifuged at 6000 × g for 15 min at 4 °C to obtain the sera, which were stored at –80 °C until analysis.
(§3) Seven animals received the 1 mg/kg dose of compound 8, and five animals received the 5 mg/kg dose of compound 8. Compound 8 was prepared as a stock solution in 100% MeCN (5 and 10 mg/mL) and kept refrigerated for the duration of the study. The dosages were prepared as follows: based on the animal’s body weight, a calculated volume of compound 8 stock solution was accurately pipetted onto a cubic piece (approx. 50 mg) of sterilized toast (Ölz multigrain toast, Rudolf Ölz Meisterbäcker GmbH & Co KG, Austria), and left to dry at room temperature for 5 min. Subsequently, 25 μL of 50% sucrose in distilled water were added at the same site to mask the bitter taste of compound 8. These dosage units were prepared twice a week during the study and stored in a closed glass petri dish at room temperature until use. […] Compound 8 was administered in this way for 27 days, eliminating the need for repeated handling and injection. The animals were observed daily for general activity level, hair coat quality or other abnormal behavior or clinical signs.
(§4) 24 h after the last dose was administered, the mice were humanly euthanized under isoflurane inhalation anesthesia (Isoflurin®, VetPharma, Spain) and the blood was withdrawn from the left ventricle using a syringe, collected in a microtube (Eppendorf, Safe-Lock tube, 0.5 mL, Eppendorf AG, Germany) and allowed to clot. After approximately 1 h, the blood was centrifuged at 6000 × g for 15 min at 4 °C to obtain the sera, which were stored at –80 °C until analysis. […] Animal sera (5–10 μL) were diluted in 0.5 mmol/L DTNB in 0.1 mol/L sodium phosphate buffer pH 7.4 (total volume 1000 μL), substrate (5 μL of 100 mmol/L, final concentration 0.5 mmol/L) was added, and the increase in absorbance monitored for 3 min. BChE activity was determined using butyrylthiocholine iodide, while AChE activity was determined on isoOMPA-inhibited sera (buffer-diluted sera were preincubated for 25 min with 1 μL of 100 mmol/L isoOMPA–0.1 mmol/L final concentration) using acetylthiocholine iodide (final concentration 0.5 mmol/L). Measurements were performed in triplicate and pairwise compared before and after treatment for each subject (n = 5 per group).

GSK3β = assay: Western blot of APP/PS1 mice brain homogenates, GSK3β; type: in vivo, C57BL/6J-TgN(APP/PS1)ZLFILAS mice; conditions: 15-day treatment, 1 or 5 mg/kg ip
BChE = target: T2, BChE (Mus musculus, UniProt Q03311); assay: Cholinesterase inhibition upon repeated dosing, serum BChE; type: in vivo, C57BL/6JRccHsd mice; conditions: for remaining activity at 1 mg/kg / remaining activity at 5 mg/kg: mouse, po
T2 construct: from tissue; host or cells: mouse serum (C57BL/6JRccHsd)
T2 sequence (Q03311 30-603): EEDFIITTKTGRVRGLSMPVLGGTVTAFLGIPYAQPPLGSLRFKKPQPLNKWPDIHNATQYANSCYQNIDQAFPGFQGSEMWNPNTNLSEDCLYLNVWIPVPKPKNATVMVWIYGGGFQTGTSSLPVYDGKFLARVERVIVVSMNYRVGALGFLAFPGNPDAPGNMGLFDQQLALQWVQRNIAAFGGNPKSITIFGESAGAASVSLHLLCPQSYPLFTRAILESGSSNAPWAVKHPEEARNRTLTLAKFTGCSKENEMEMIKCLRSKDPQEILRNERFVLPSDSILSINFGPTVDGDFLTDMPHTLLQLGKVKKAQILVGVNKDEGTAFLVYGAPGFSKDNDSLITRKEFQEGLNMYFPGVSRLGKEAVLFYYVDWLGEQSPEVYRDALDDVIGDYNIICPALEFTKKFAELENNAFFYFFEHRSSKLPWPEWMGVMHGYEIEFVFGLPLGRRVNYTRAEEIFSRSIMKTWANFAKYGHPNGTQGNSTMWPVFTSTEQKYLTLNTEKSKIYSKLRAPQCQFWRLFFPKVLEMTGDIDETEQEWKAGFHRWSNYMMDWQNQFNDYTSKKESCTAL
Source text: as §1, §2, §3, §4

## CCN(CC)C(=O)n1cnc(C2(CC)Cc3ccccc3C2)c1 [Compound 8, N,N-Diethyl-4-(2-ethylindan-2-yl)-1H-imidazole-1-carboxamide]
AChE; 1 or 5 mg/kg p.o. once a day for 4 weeks
  serum AChE activities at the end of treatment: unchanged
AChE; mouse, po, serum, 1 mg/kg p.o. once a day, individual animals, after vs before treatment, read-out: AChE residual activity
  remaining activity at 1 mg/kg: 91.2%
AChE; mouse, po, serum, 1 mg/kg p.o. once a day, read-out: AChE residual activity, AVERAGE
  remaining activity at 1 mg/kg: 101%
AChE; mouse, po, serum, 5 mg/kg p.o. once a day, read-out: AChE residual activity, AVERAGE
  remaining activity at 5 mg/kg: 91.2%
AChE; serum, 1 mg/kg p.o. once a day, individual animals, after vs before treatment, 1 mg/kg
  AChE residual activity: 104.0%±9.7% and 107.1%±22.3%
AChE; serum, 1 mg/kg p.o. once a day, individual animals, 1 mg/kg
  AChE activity AFTER treatment: 0.9541±0.2227 U/mL and 1.0365±0.0653 U/mL and 0.8481±0.0324 U/mL
AChE; serum, 5 mg/kg p.o. once a day, individual animals, after vs before treatment, 5 mg/kg
  AChE residual activity: 89.7%±14.6% and 63.0%±13.9% and 121.0%±17.4%
AChE; serum, 5 mg/kg p.o. once a day, individual animals, 5 mg/kg
  AChE activity AFTER treatment: 0.9258±0.0430 U/mL and 0.7420±0.1450 U/mL and 0.9517±0.0657 U/mL
GSK3β
  phosphorylation of GSK3β in whole brain homogenates: increased phosphorylation of GSK3β
BChE; 1 mg/kg p.o. once a day for 4 weeks, compared to before treatment, 1 mg/kg
  BChE residual activity, AVERAGE: 21%±6%
BChE; 1 mg/kg p.o. once a day, individual animals, 1 mg/kg
  BChE activity AFTER treatment: 0.2139±0.0118 U/mL and 0.1602±0.0041 U/mL and 0.1484±0.0071 U/mL and 0.2261±0.0071 U/mL and 0.2214±0.0082 U/mL
BChE; 1 mg/kg p.o. once a day, individual animals, after vs before treatment, 1 mg/kg
  BChE residual activity: 27.0%±4.2% and 15.9%±1.1% and 19.4%±1.8% and 20.1%±2.4%
BChE; 5 mg/kg p.o. once a day for 4 weeks, compared to before treatment, 5 mg/kg
  BChE residual activity, AVERAGE: 10%±5%
BChE; 5 mg/kg p.o. once a day, individual animals, 5 mg/kg
  BChE activity AFTER treatment: 0.1060±0.0071 U/mL and 0.0989±0.0071 U/mL and 0.0801±0.0268 U/mL and 0.0683±0.0108 U/mL and 0.0919±0.0000 U/mL
BChE; 5 mg/kg p.o. once a day, individual animals, after vs before treatment, 5 mg/kg
  BChE residual activity: 10.6%±1.7% and 6.9%±2.9% and 12.1%±2.7% and 10.8%±2.1%
BChE; 1 mg/kg p.o. once a day for 4 weeks, compared to before treatment, read-out: BChE residual activity, AVERAGE
  remaining activity at 1 mg/kg: 20.6%
BChE; 1 mg/kg p.o. once a day, individual animals, after vs before treatment, read-out: BChE residual activity
  remaining activity at 1 mg/kg: 20.3%
BChE; 5 mg/kg p.o. once a day for 4 weeks, compared to before treatment, read-out: BChE residual activity, AVERAGE
  remaining activity at 5 mg/kg: 10.1%
BChE; 5 mg/kg p.o. once a day, individual animals, after vs before treatment, read-out: BChE residual activity
  remaining activity at 5 mg/kg: 10.1%
